Experimental data reported in patent publication US20220106296A1, “CYANOTRIAZOLE COMPOUNDS AND USES THEREOF” (Novartis AG, priority 2018, published 2022).

Legend:
[1] = tested on: T. b. brucei Lister427 bloodstream form parasites; experiment: T. b. brucei growth inhibition assay (CellTiter-Glo, 48 hours); assay type: cell-based; settings: Trypanosoma brucei
Method in brief: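 1×10^4 bloodstream-form parasites/well in HMI-9 medium exposed to 10-point, 3-fold compound dilutions for 48 h at 37 °C, 5% CO2. Parasite number quantified as intracellular ATP by CellTiter-Glo luminescence, normalized to DMSO controls for IC50 calculation.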

[2] = tested on: intracellular T. cruzi amastigotes; experiment: T. cruzi amastigote growth inhibition assay (NIH 3T3 host cells, β-galactosidase readout); assay type: cell-based; settings: Trypanosoma cruzi, NIH3T3, read-out: (c) T.c.* IC50
Experimental: NIH 3T3 fibroblast cells (ATCC) were maintained in RPMI-1640 medium (Life Technologies) supplemented with 10% heat-inactivated fetal bovine serum and 100 IU penicillin/100 μg/ml streptomycin at 37° C./5% CO2. T. cruzi Tulahuen parasites constitutively expressing E. coli β-galactosidase were maintained in tissue culture as an infection in NIH 3T3 fibroblast cells. Briefly, 2×10^7 T. cruzi trypomastigotes were used to infect 6×10^5 NIH 3T3 cells growing in T75 CELLSTAR tissue culture flasks and cultured at 37° C./5% CO2 until proliferating intracellular parasites lysed host 3T3 cells and were released into the culture medium (typically 6-7 days). During the infection, the tissue culture medium was changed every two days. Number of T. cruzi trypomastigotes present in 1 ml of medium was determined using a haemocytometer.
To determine compound potency on intracellular T. cruzi amastigotes, NIH 3T3 cells were re-suspended in phenol red-free RPMI-1640 medium containing 3% heat-inactivated fetal bovine serum and 100 IU penicillin/100 μg/ml streptomycin, seeded at 1,000 cells/well (40 μl) in white, clear bottom 384-well plates (Greiner Bio-One), and incubated overnight at 37° C./5% CO2. The following day, 100 nl of each compound in DMSO were transferred to individual plate wells by Echo 555 acoustic liquid handling system. After one hour incubation, 1×10^6 of tissue culture-derived T. cruzi trypomastigotes, in 10 μl of phenol red-free RPMI-1640 medium supplemented with 3% heat-inactivated fetal bovine serum and 100 IU penicillin/100 μg/ml streptomycin were added to each well. Plates were then incubated for 6 days at 37° C./5% CO2. Intracellular T. cruzi parasites were quantified by measuring the activity of parasite-expressed β-galactosidase. Ten microliters of a chromogenic β-galactosidase substrate solution (0.6 mM chlorophenol red-β-D-galactopyranoside/0.6% NP-40 in PBS; both reagents from Calbiochem) were added to each well and incubated for 2 h at room temperature. After incubation, absorption was measured at 570 nm on SpectraMax M2 plate reader (Molecular Devices). Measured absorbance values in wells with compounds were divided by the average absorbance value of the plate DMSO controls, and used for calculation of compound EC50 values as described above.

[3] = tested on: stage I mouse model, hemolymphatic (blood stream) form of human infection; experiment: Stage I mouse model of HAT; assay type: in vivo
Source text: (§1) Based on the favorable in vitro and in vivo pharmacological properties, selected cyanotraizole compounds were chosen for testing in stage I and stage II mice models. The stage I mouse model represents the hemolymphatic (blood stream) form of human infection.

[4] = tested on: stage II mouse model, CNS form of the disease; experiment: Stage II mouse model of HAT; assay type: in vivo
Source text: as §1

[5] = tested on: T.b. gambinese STIB930; experiment: T.b. gambiense growth inhibition assay; assay type: cell-based; settings: Trypanosoma brucei, read-out: (b) T.b.g* IC50
Experimental: Bloodstream form of T. b. brucei Lister427 strain was obtained from the Genomics Institute of the Novartis Research Foundation. This strain was used for carrying out growth inhibition and kill kinetics assays. T. b. gambiense STIB930 and T. b. rhodesiense STIB900 were obtained from Swiss TPH, were used for carrying out the growth inhibition assays. Bloodstream form of T. b. gambiense and T. b. rhodesiense were also grown in HMI-9 media, described above, but the media was supplemented by 5% human serum and 5% heat-inactivated FBS instead of 10% FBS. To determine compound growth inhibitory potency on T. b. brucei Lister427 bloodstream form parasites, 200 nL of 10-point, 3 fold serially diluted compounds in DMSO were transferred to the wells of white, solid bottom 384-well plates (Greiner Bio-One) by either Echo 555 acoustic liquid handling system or Mosquito. Then, 1×10^4 of T. b. brucei parasites in 40 μL of HMI-9 medium were added to each well, and the plates were incubated for 48 hours at 37° C. in 5% CO2 incubators. Parasite numbers in individual plate wells were determined through quantification of intracellular ATP amount. The CellTiter-Glo luminescent cell viability reagent (Promega) was added to plate wells, and ATP-dependent luminescence signal was measured on Tecan M1000 plate Reader after 30 min incubation. Luminescence values in wells with compounds were divided by the average luminescence value of the plate DMSO controls, and used for calculation of compound IC50 values. Similar assay was also used for determining IC50 against T.b. gambinese STIB930 and T. b. rhodesiense STIB900 strains, but the initial concentration of cells used was 3×10^4 parasites/ml.

[6] = tested on: Leishmania donovani axenic amastigote; experiment: Growth inhibition of Leishmania donovani axenic amastigote; assay type: cell-based; settings: L. donovani growth inhibition, read-out: (d) L.d* IC50
Experimental: Leishmania donovani axenic amastigote parasites are grown at 37° C., 5% CO2 in media made of RPMI 1640, 4 mM L-glutamine, 20% heat inactivated FBS, 100 units/ml of penicillin and 100 μg/ml of streptomycin, 23 μM Folic Acid, 100 μM Adenosine, 22 mM D-glucose, 25 mM MES. The pH of media is adjusted to 5.5 at 37° C. using HCl. 20 μL of media is first dispensed into 384 well plates and 100 nL of the compounds of invention in DMSO are added to the plate wells. At the same time control compounds and DMSO are added to plates to serve as the positive and negative controls, respectively. 40 μL of parasite culture (9600 parasites) are then added to the plate wells. The plates are then placed into incubators. After 2 day incubation, 20 μL of Cell TiterGlo (Promega) is added to the plate wells. The luminescence signal of each well is measured using the Envision reader (Perkin Elmer). The percentage inhibition of 50%, EC50, is calculated for each of the compounds.

Row | Structure (SMILES) | IC50 [1] | IC50 [2] | cure in stage I mouse model ([3]; 10 mg/kg QD) | cure in stage II mouse model ([4]; 10 mg/kg QD) | IC50 [5] | IC50 [6] | cure in stage I mouse model ([3]; 10 mg/kg BID) | cure in stage II mouse model ([4]; 100 mg/kg QD)
1 | N#Cc1ncn(CC(=O)N2Cc3ccc(-c4cc(F)cnc4C(F)(F)F)cc3C2)n1 [Example 8, 1-(2-(5-(5-fluoro-2-(trifluoromethyl)pyridin-3-yl)isoindolin-2-yl)-2-oxoethyl)-1H-1,2,4-triazole-3-carbonitrile] | 100 to 1000 nM | 100 to 1000 nM | complete cure without relapse | complete cure without relapse | – | – | – | –
2 | N#Cc1ncn(CC(=O)N2Cc3ccc(-c4ccncc4C(F)(F)F)cc3C2)n1 [Example 27, 1-(2-oxo-2-(5-(3-(trifluoromethyl)pyridin-4-yl)isoindolin-2-yl)ethyl)-1H-1,2,4-triazole-3-carbonitrile] | < 100 nM | < 100 nM | – | – | < 100 nM | – | – | –
3 | N#Cc1ncn(CC(=O)N2Cc3ccc(-c4ccc(F)cc4C(F)(F)F)cc3C2)n1 [Example 29, 1-(2-(5-(4-fluoro-2-(trifluoromethyl)phenyl)isoindolin-2-yl)-2-oxoethyl)-1H-1,2,4-triazole-3-carbonitrile] | < 100 nM | < 100 nM | – | – | 100 to 1000 nM | ≥ 1000 nM | complete cure without relapse | complete cure without relapse
4 | N#Cc1ncn(CC(=O)N2Cc3ccc(-c4cc(F)c(F)cc4Cl)cc3C2)n1 [Example 30, 1-(2-(5-(2-chloro-4,5-difluorophenyl)isoindolin-2-yl)-2-oxoethyl)-1H-1,2,4-triazole-3-carbonitrile] | < 100 nM | < 100 nM | – | – | 100 to 1000 nM | ≥ 1000 nM | – | –
5 | COc1ccc(-c2ccc3c(c2)CN(C(=O)Cn2cnc(C#N)n2)C3)c(C(F)(F)F)c1 [Example 31, 1-(2-(5-(4-methoxy-2-(trifluoromethyl)phenyl)isoindolin-2-yl)-2-oxoethyl)-1H-1,2,4-triazole-3-carbonitrile] | < 100 nM | < 100 nM | – | – | 100 to 1000 nM | ≥ 1000 nM | – | –
6 | N#Cc1ncn(CC(=O)N2Cc3ccc(-c4ccc(F)cc4C#N)cc3C2)n1 [Example 32, 1-(2-(5-(2-cyano-4-fluorophenyl)isoindolin-2-yl)-2-oxoethyl)-1H-1,2,4-triazole-3-carbonitrile] | 100 to 1000 nM | < 100 nM | – | – | – | ≥ 1000 nM | – | –
7 | N#Cc1ncn(CC(=O)N2Cc3ccc(-c4ccccc4Cl)cc3C2)n1 [Example 33, 1-(2-(5-(2-chlorophenyl)isoindolin-2-yl)-2-oxoethyl)-1H-1,2,4-triazole-3-carbonitrile] | 100 to 1000 nM | < 100 nM | – | – | 100 to 1000 nM | ≥ 1000 nM | – | –
8 | COc1ccc(-c2ccc3c(c2)CN(C(=O)Cn2cnc(C#N)n2)C3)c(Cl)c1 [Example 34, 1-(2-(5-(2-chloro-4-methoxyphenyl)isoindolin-2-yl)-2-oxoethyl)-1H-1,2,4-triazole-3-carbonitrile] | 100 to 1000 nM | < 100 nM | – | – | 100 to 1000 nM | ≥ 1000 nM | – | –
9 | N#Cc1ncn(CC(=O)N2Cc3ccc(-c4c(Cl)cccc4Cl)cc3C2)n1 [Example 35, 1-(2-(5-(2,6-dichlorophenyl)isoindolin-2-yl)-2-oxoethyl)-1H-1,2,4-triazole-3-carbonitrile] | 100 to 1000 nM | < 100 nM | – | – | – | ≥ 1000 nM | – | –
10 | N#Cc1ncn(CC(=O)N2Cc3ccc(-c4ccccc4C(F)(F)F)cc3C2)n1 [Example 36, 1-(2-oxo-2-(5-(2-(trifluoromethyl)phenyl)isoindolin-2-yl)ethyl)-1H-1,2,4-triazole-3-carbonitrile] | 100 to 1000 nM | < 100 nM | – | – | – | ≥ 1000 nM | – | –
11 | N#Cc1ncn(CC(=O)N2Cc3ccc(-c4ccc(F)cc4Cl)cc3C2)n1 [Example 37, 1-(2-(5-(2-chloro-4-fluorophenyl)isoindolin-2-yl)-2-oxoethyl)-1H-1,2,4-triazole-3-carbonitrile] | 100 to 1000 nM | < 100 nM | – | – | 100 to 1000 nM | – | – | –
12 | N#Cc1ncn(CC(=O)N2Cc3ccc(-c4ccc(Cl)cc4Cl)cc3C2)n1 [Example 38, 1-(2-(5-(2,4-dichlorophenyl)isoindolin-2-yl)-2-oxoethyl)-1H-1,2,4-triazole-3-carbonitrile] | 100 to 1000 nM | < 100 nM | – | – | 100 to 1000 nM | ≥ 1000 nM | – | –
13 | N#Cc1ccc(F)c(-c2ccc3c(c2)CN(C(=O)Cn2cnc(C#N)n2)C3)c1 [Example 41, 1-(2-(5-(5-cyano-2-fluorophenyl)isoindolin-2-yl)-2-oxoethyl)-1H-1,2,4-triazole-3-carbonitrile] | 100 to 1000 nM | < 100 nM | – | – | 100 to 1000 nM | ≥ 1000 nM | – | –
14 | N#Cc1ncn(CC(=O)N2Cc3ccc(-c4ccccc4C#N)cc3C2)n1 [Example 43, 1-(2-(5-(2-cyanophenyl)isoindolin-2-yl)-2-oxoethyl)-1H-1,2,4-triazole-3-carbonitrile] | 100 to 1000 nM | < 100 nM | – | – | – | ≥ 1000 nM | – | –
15 | N#Cc1ncn(CC(=O)N2Cc3ccc(-c4cc(F)c(F)cc4F)cc3C2)n1 [Example 45, 1-(2-oxo-2-(5-(2,4,5-trifluorophenyl)isoindolin-2-yl)ethyl)-1H-1,2,4-triazole-3-carbonitrile] | 100 to 1000 nM | 100 to 1000 nM | – | – | 100 to 1000 nM | – | – | –
16 | N#Cc1ccc(-c2ccc3c(c2)CN(C(=O)Cn2cnc(C#N)n2)C3)cc1 [Example 46, 1-(2-(5-(4-cyanophenyl)isoindolin-2-yl)-2-oxoethyl)-1H-1,2,4-triazole-3-carbonitrile] | 100 to 1000 nM | 100 to 1000 nM | – | – | – | ≥ 1000 nM | – | –
17 | N#Cc1ncn(CC(=O)N2Cc3ccc(-c4cccc(F)c4C(F)(F)F)cc3C2)n1 [Example 84, 1-(2-(5-(3-fluoro-2-(trifluoromethyl)phenyl)isoindolin-2-yl)-2-oxoethyl)-1H-1,2,4-triazole-3-carbonitrile] | 100 to 1000 nM | < 100 nM | – | – | – | – | – | –
18 | N#Cc1ncn(CC(=O)N2Cc3ccc(-c4cnccc4C(F)(F)F)cc3C2)n1 [Example 86, 1-(2-oxo-2-(5-(4-(trifluoromethyl)pyridin-3-yl)isoindolin-2-yl)ethyl)-1H-1,2,4-triazole-3-carbonitrile] | 100 to 1000 nM | 100 to 1000 nM | – | – | – | – | – | –
